Source: US12643859B2, “Pyridyl oxycarboxylic acid oxime derivative and preparation method therefor, weeding composition and application thereof” (Qingdao Kingagroot Chemical Compound Co., Ltd., priority 2018, dated 2026)

How the values were obtained:
Assay type in all cases: in vivo
[1] = test system: Monocotyledonous and dicotyledonous weed seeds and main crop seeds; assay: Post-emergence test experiment (Table 3, 1000 g a.i./ha); settings: 3 weeks in greenhouse, fresh weight inhibition
Outline: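 Weeds and crops (wheat, corn, rice, soybean, cotton, oilseed, millet, sorghum) grown in soil in the greenhouse and sprayed post-emergence at 2–3 leaf stage, 2 weeks after sowing. Compound in acetone with tween-80 plus methyl oleate emulsible concentrate (1.5 L/ha) as synergist, diluted in water. Fresh weight inhibition scored after 3 weeks.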

Rice = assay: Transplanted rice safety evaluation; settings: 1000 g a.i./ha, transplanted 3 leaf stage japonica rice, treated 5 days after transplantation, 21 days after treatment
Experimental: (§1) The above described growth inhibition rate is fresh weight inhibition rate.
In addition, the rice field soil that loaded into the 1/1,000,000 ha pot was leveled to keep water storage at 3-4 cm depth. The 3 leaf stage rice (japonica rice) was transplanted at 3 cm of transplanting depth the next day. The compound of the present invention was treated by the same way after 5 days of transplantation.
(§2) The fertility condition of Scirpus juncoides, Sagittaria trifolia and Monochoria vaginalis 14 days after the treatment of the compound of the invention and the fertility condition of rice 21 days after the treatment of the compound of the invention respectively with the naked eye. Evaluate the weed control effect with 0-5 activity standard level.

Monochoria Vaginalis = assay: Weed control effect evaluation in rice field; settings: 1000 g a.i./ha, paddy water application at 0.5 leaf stage, 14 days after treatment; weeds resistant to pyrazosulfuron-ethyl and penoxsulam
Text: as §1
(§3) Transplanted rice safety evaluation and weed control effect evaluation in rice field: Rice field soil was loaded into a 1/1,000,000 ha pot. The seeds of Scirpus juncoides, Sagittaria trifolia and Monochoria vaginalis were sowed and gently covered with soil, then left to stand still in greenhouse in the state of 0.5-1 cm of water storage. The tuber of Sagittaria trifolia was planted in the next day or 2 days later. It was kept at 3-4 cm of water storage thereafter. The weeds were treated by dripping the WP or SC water diluents prepared according to the common preparation method of the compounds of the present invention with pipette homogeneously to achieve specified effective amount when Scirpus juncoides, and Monochoria vaginalis reached 0.5 leaf stage and Sagittaria trifolia reached the time point of primary leaf stage.
as §2, with “level. Many compounds show excellent activity and selectivity.” for “level.”

Sagittaria trifolia = assay: Weed control effect evaluation in rice field; settings: 1000 g a.i./ha, paddy water application at primary leaf stage, 14 days after treatment; weeds resistant to pyrazosulfuron-ethyl and penoxsulam
Text: as §1, §3
as §2, with “level. Many compounds show excellent activity and selectivity.” for “level.”

Scirpus juncoides = assay: Weed control effect evaluation in rice field; settings: 1000 g a.i./ha, paddy water application at 0.5 leaf stage, 14 days after treatment; weeds resistant to pyrazosulfuron-ethyl and penoxsulam
Text: as §1, §3
as §2, with “level. Many compounds show excellent activity and selectivity.” for “level.”

Cyperus iria = assay: Post-emergence test experiment, weed control; settings: post-emergence spray, 600 g a.i./ha plus water 450 kg/ha, 3 weeks in greenhouse
Experimental: as §1
(§4) Post-emergence test experiment: Monocotyledonous and dicotyledonous weed seeds and main crop seeds (i. e. wheat, corn, rice, soybean, cotton, oilseed, millet and sorghum.) were put into a plastic pot loaded with soil. Then covered with 0.5-2 cm soil, the seeds were allowed to grow in good greenhouse environment. The test plants were treated at 2-3 leaf stage 2 weeks after sowing. The test compounds of the invention were dissolved with acetone respectively, then added with tween-80, and using 1.5 liters per hectare of an emulsible concentrate of methyl oleate as a synergist, and diluted by certain amount of water to certain concentration. The solution was sprayed to the plants with a sprayer. Then the plants were cultured for 3 weeks in the greenhouse, and the experiment result of weed controlling effect was listed in tables 3-4.

Japonica rice = assay: Post-emergence test experiment, crop selectivity; settings: post-emergence spray, 600 g a.i./ha plus water 450 kg/ha, 3 weeks in greenhouse
Experimental: as §1, §4

Indica rice = assay: Post-emergence test experiment, crop selectivity; settings: post-emergence spray, 600 g a.i./ha plus water 450 kg/ha, 3 weeks in greenhouse
Experimental: as §1, §4

SMILES | Activity level (growth inhibition rate) Digitaria sanguinalis [1] | Activity level (growth inhibition rate) Echinochloa crusgalli [1] | Activity level (growth inhibition rate) Galium spurium [1] | Activity level (growth inhibition rate) Leptochloa chinensis [1] | Activity level (growth inhibition rate) Monochoria Vaginalis [1] | Activity level (growth inhibition rate) Murdannia triquetra [1] | Activity level (growth inhibition rate) Setaria viridis [1] | Safety, 0-5 activity standard level, Rice (Rice) | Weed control effect, 0-5 activity standard level, Monochoria Vaginalis (Monochoria Vaginalis) | Weed control effect, 0-5 activity standard level, Sagittaria trifolia (Sagittaria trifolia) | Weed control effect, 0-5 activity standard level, Scirpus juncoides (Scirpus juncoides) | Activity level (fresh weight growth inhibition rate), Cyperus iria (Cyperus iria) | Activity level (fresh weight growth inhibition rate), Japonica rice (Japonica rice) | Activity level (fresh weight growth inhibition rate), Indica rice (Indica rice)
COc1ccccc1C(F)=NOC(=O)C(C)Oc1nc(F)c(Cl)c(N)c1Cl (centres unmarked) [Compound 84] | 5 (Level 5: the growth inhibition rate is greater than 85%) | 5 (Level 5: the growth inhibition rate is greater than 85%) | 5 (Level 5: the growth inhibition rate is greater than 85%) | 5 (Level 5: the growth inhibition rate is greater than 85%) | 5 (Level 5: the growth inhibition rate is greater than 85%) | 5 (Level 5: the growth inhibition rate is greater than 85%) | 5 (Level 5: the growth inhibition rate is greater than 85%) | 0 (Level 0: the growth inhibition rate is less than 5%) | 5 (Level 5: the growth inhibition rate is greater than 85%) | 4 (Level 4: the growth inhibition rate is equal to or greater than 60% and less than 85%) | 4 (Level 4: the growth inhibition rate is equal to or greater than 60% and less than 85%) | 5 (Level 5: the growth inhibition rate is greater than 85%) | 0 (Level 0: the growth inhibition rate is less than 5%) | 0 (Level 0: the growth inhibition rate is less than 5%)
CCC(=NOC(=O)C(C)Oc1nc(F)c(Cl)c(N)c1Cl)C(=O)NCc1ccc(C)cc1 (centres unmarked) [Compound 100] | 5 (Level 5: the growth inhibition rate is greater than 85%) | 5 (Level 5: the growth inhibition rate is greater than 85%) | 5 (Level 5: the growth inhibition rate is greater than 85%) | 5 (Level 5: the growth inhibition rate is greater than 85%) | 5 (Level 5: the growth inhibition rate is greater than 85%) | 5 (Level 5: the growth inhibition rate is greater than 85%) | 5 (Level 5: the growth inhibition rate is greater than 85%) |  |  |  |  | 5 (Level 5: the growth inhibition rate is greater than 85%) | 0 (Level 0: the growth inhibition rate is less than 5%) | 0 (Level 0: the growth inhibition rate is less than 5%)
CC(=NOC(=O)C(C)Oc1nc(F)c(Cl)c(N)c1Cl)c1ccc(Cl)cc1 (centres unmarked) [Compound 70] | 5 (Level 5: the growth inhibition rate is greater than 85%) | 5 (Level 5: the growth inhibition rate is greater than 85%) | 5 (Level 5: the growth inhibition rate is greater than 85%) | 5 (Level 5: the growth inhibition rate is greater than 85%) | 5 (Level 5: the growth inhibition rate is greater than 85%) | 5 (Level 5: the growth inhibition rate is greater than 85%) | 5 (Level 5: the growth inhibition rate is greater than 85%) | 0 (Level 0: the growth inhibition rate is less than 5%) | 5 (Level 5: the growth inhibition rate is greater than 85%) | 4 (Level 4: the growth inhibition rate is equal to or greater than 60% and less than 85%) | 4 (Level 4: the growth inhibition rate is equal to or greater than 60% and less than 85%) | 5 (Level 5: the growth inhibition rate is greater than 85%) | 0 (Level 0: the growth inhibition rate is less than 5%) | 0 (Level 0: the growth inhibition rate is less than 5%)
CC(Oc1nc(F)c(Cl)c(N)c1Cl)C(=O)ON=C(c1ccc(N(C)C)cc1)[N+](=O)[O-] (centres unmarked) [Compound 90] | 5 (Level 5: the growth inhibition rate is greater than 85%) | 5 (Level 5: the growth inhibition rate is greater than 85%) | 5 (Level 5: the growth inhibition rate is greater than 85%) | 5 (Level 5: the growth inhibition rate is greater than 85%) | 5 (Level 5: the growth inhibition rate is greater than 85%) | 5 (Level 5: the growth inhibition rate is greater than 85%) | 5 (Level 5: the growth inhibition rate is greater than 85%) |  |  |  |  | 5 (Level 5: the growth inhibition rate is greater than 85%) | 0 (Level 0: the growth inhibition rate is less than 5%) | 0 (Level 0: the growth inhibition rate is less than 5%)
CC(Oc1nc(F)c(Cl)c(N)c1Cl)C(=O)ON=C(C#N)c1ccc(Cl)cc1 (centres unmarked) [Compound 87] | 5 (Level 5: the growth inhibition rate is greater than 85%) | 5 (Level 5: the growth inhibition rate is greater than 85%) | 5 (Level 5: the growth inhibition rate is greater than 85%) | 5 (Level 5: the growth inhibition rate is greater than 85%) | 5 (Level 5: the growth inhibition rate is greater than 85%) | 5 (Level 5: the growth inhibition rate is greater than 85%) | 5 (Level 5: the growth inhibition rate is greater than 85%) |  |  |  |  | 5 (Level 5: the growth inhibition rate is greater than 85%) | 0 (Level 0: the growth inhibition rate is less than 5%) | 0 (Level 0: the growth inhibition rate is less than 5%)
CC(Oc1nc(F)c(Cl)c(N)c1Cl)C(=O)ON=C1CCCC1 (centres unmarked) [Compound 117] | 5 (Level 5: the growth inhibition rate is greater than 85%) | 5 (Level 5: the growth inhibition rate is greater than 85%) | 5 (Level 5: the growth inhibition rate is greater than 85%) | 5 (Level 5: the growth inhibition rate is greater than 85%) | 5 (Level 5: the growth inhibition rate is greater than 85%) | 5 (Level 5: the growth inhibition rate is greater than 85%) | 5 (Level 5: the growth inhibition rate is greater than 85%) |  |  |  |  | 5 (Level 5: the growth inhibition rate is greater than 85%) | 0 (Level 0: the growth inhibition rate is less than 5%) | 0 (Level 0: the growth inhibition rate is less than 5%)
